Results reported in patent US9012513B2, “Antioxidant, antioxidant composition and production method therefor” (Watanabe Oyster Laboratory Co., Ltd., priority 2011, dated 2015).
“Also recorded” adds a separate entry of the source.

How the values were obtained:
[1] = properties of the separated and purified substance (solubility); assay type: physicochemical
Description: Here, the properties of 3,5-dihydroxy-4-methoxybenzyl alcohol, which was separated and purified, will be described. […] It was confirmed that the 3,5-dihydroxy-4-methoxybenzyl alcohol was a phenolic compound as illustrated in FIG. 8.

[2] = antioxidant capacity by the ORAC method (Fluorescein, AAPH); assay type: biochemical
Description: The 3,5-dihydroxy-4-methoxybenzyl alcohol can be separated and purified by the following operation. First, Trolox (Wako) or a test sample of 0.05 mL dissolved in a mixed solution of 0.075 mol/L phosphoric acid buffer solution 2.3 of 5 mL, 6.3×10^−7 mol/L Fluorescein (fluorescent probe) of 0.3 mL, and 7% (w/v) methylated β-cyclodextrin (Wako) was warmed for 10 minutes at 37° C.
1.28×10^−1 mol/L2,2′-azobis(2-amidinopropane)dihydrochloride (AAPH, Wako), which has been preliminarily warmed at 37° C., was added by 0.3 mL. For example, while stirring with a stirrer, a fluorescence intensity (excitation wavelength: 493 nm, fluorescence wavelength: 515 nm) was measured for every 10 seconds and up to 5,000 seconds by a spectrofluorophotometer (FP-6500 , JASCO, Tokyo).
An antioxidant activity is indicated by length of period (for example, the horizontal axis in FIG. 5) during which a measured fluorescence value (the vertical axis in the same drawing) at the start of measurement is maintained. The longer the period, the stronger the antioxidant activity is.
Methods for measuring an antioxidant substance in a food product have been variously reported. However, all the methods have a drawback and an advantage, and therefore the method has not been standardized or determined as an official method (confirmation of validity of an analysis value). However, in the United States of America, a supplement and a beverage with an ORAC value have already been on the market. This trend is becoming a world standard. Accordingly, in this working example, the antioxidative potency is measured by the ORAC method.
A research conference that studies on employing the ORAC method as an official method (Antioxidant-Unit Research Association) has already been founded in Japan. The ORAC method has advantages in that both a soluble sample and a liposoluble sample can be measured and the above-described any organic solvent fractions can be measured. […]

[3] = test system: cell line (C3A) in a liver; assay: oxidation of DPPP-labeled hepatocyte culture (C3A) by AAPH; assay type: cell-based; details: cultured for 5 days with the substance, compared with cell without the substance
Description: FIG. 12 illustrates the principle of the fluorescence of the diphenyl-1-pyrenlphosphine (DPPP). Using the fluorescent dye, the degree of oxidation of a cell line (C3A) in a liver was observed.
A cell where the 3,5-dihydroxy-4-methoxybenzyl alcohol according to the present invention had been added was cultured for 5 days. The cell labeled by DPPP was oxidized by 2,2′-azobis (2-methylpropionamidine)dihydrochloide, and then the fluorescence intensity of the DPPP in each cell was measured. […] It was confirmed that the antioxidant substance, 3,5-dihydroxy-4-methoxybenzyl alcohol, reduced the oxidation (see FIG. 13).

normal human LDL = assay: metal oxidation of normal human LDL by copper sulfate, quantitated by TBARS method; assay type: biochemical
Description: When normal human LDL is oxidized by copper sulfate, 3,5-dihydroxy-4-methoxybenzyl alcohol was added, and the degree of oxidation of the LDL was quantitated by a TBARS method (see FIG. 11). […] The Lag-time refers to a period where a rise of a curve is not observed. It is determined that, as the time increases, antioxidant activity occurs. However, the lag-time was extended by dose dependency. The lag-time was 2 hours for addition of 270 μM, 4 hours for addition of 360 μM, and 5 hours for addition of 450 μM and 540 μM.

## COc1c(O)cc(CO)cc1O [3,5-dihydroxy-4-methoxybenzyl alcohol]
[1]
  solubility: show lipid solubility and water solubility
[2]
  ORAC value relative to that of L(+)-ascorbic acid: three times
[2]; length of period during which the fluorescence value is maintained
  antioxidant capacity / antioxidant activity observed by the ORAC method: high antioxidant activity was observed; also recorded: high antioxidant capacity between those of a chlorogenic acid and L(+)- the ascorbic acid
[2]; synthesized product
  ORAC value: 1.47±0.40 μmoITE/μmol
[3]
  fluorescence intensity of DPPP / oxidation of C3A cell: concentration dependence and low fluorescence intensity; also recorded: significantly reduced oxidation of a C3A cell; also recorded: showed an antioxidant capacity in a dose-dependent manner
Normal human LDL; addition of 270 μM
  lag-time of LDL oxidation: 2 h
Normal human LDL; addition of 360 μM
  lag-time of LDL oxidation: 4 h
Normal human LDL; addition of 450 μM
  lag-time of LDL oxidation: 5 h
Normal human LDL; addition of 540 μM
  lag-time of LDL oxidation: 5 h
Normal human LDL; copper sulfate, TBARS
  effect on metal oxidation of the LDL: reduced the metal oxidation of the LDL; also recorded: showed an antioxidant capacity in a dose-dependent manner
Normal human LDL; substance added at 180 μM
  lag-time of LDL oxidation: lag-time was not observed
